The subject of assay [1] is HCC1806. Kind of assay: Cell viability assay (CellTiter-Glo). It counts as cell-based, Human. Conditions: Homo sapiens, HCC1806, 168 h, HCC1806, 7 days, CellTiter-Glo; read-out: IC50 (nM) in cell viability assay.
Assay [2] concerns the target PARG (Homo sapiens, UniProt Q86W56). The experiment in a line: Biochemical assay (PARG, TFMU-ADPr substrate).

Chain of PARG (Q86W56 whole entry): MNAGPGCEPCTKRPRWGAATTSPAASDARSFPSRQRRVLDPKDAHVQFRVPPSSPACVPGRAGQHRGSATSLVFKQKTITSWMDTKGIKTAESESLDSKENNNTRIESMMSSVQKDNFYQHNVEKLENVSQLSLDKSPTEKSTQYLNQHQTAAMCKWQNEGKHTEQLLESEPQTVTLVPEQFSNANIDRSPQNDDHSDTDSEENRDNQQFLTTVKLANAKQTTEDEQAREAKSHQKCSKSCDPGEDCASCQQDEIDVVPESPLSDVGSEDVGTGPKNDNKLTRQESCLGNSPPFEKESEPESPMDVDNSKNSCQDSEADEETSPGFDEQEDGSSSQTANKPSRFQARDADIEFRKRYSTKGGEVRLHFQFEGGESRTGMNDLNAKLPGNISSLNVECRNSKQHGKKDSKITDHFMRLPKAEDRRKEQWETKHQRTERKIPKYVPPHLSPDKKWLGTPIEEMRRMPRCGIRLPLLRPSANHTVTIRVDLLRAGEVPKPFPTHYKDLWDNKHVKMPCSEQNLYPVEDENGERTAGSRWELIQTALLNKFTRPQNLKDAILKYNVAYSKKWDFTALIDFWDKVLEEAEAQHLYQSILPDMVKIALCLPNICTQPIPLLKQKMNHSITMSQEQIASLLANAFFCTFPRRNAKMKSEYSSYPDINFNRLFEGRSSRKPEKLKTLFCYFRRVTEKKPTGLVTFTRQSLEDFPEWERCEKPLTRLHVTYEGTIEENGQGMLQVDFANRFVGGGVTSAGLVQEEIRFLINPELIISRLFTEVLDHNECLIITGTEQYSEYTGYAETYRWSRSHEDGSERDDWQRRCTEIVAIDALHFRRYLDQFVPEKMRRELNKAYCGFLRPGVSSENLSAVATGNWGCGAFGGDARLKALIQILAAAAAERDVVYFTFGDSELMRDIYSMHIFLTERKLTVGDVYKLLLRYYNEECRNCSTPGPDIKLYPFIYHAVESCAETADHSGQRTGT

As for `CC(C)C(=O)N1CCN(c2cc(S(=O)(=O)NC3CC3)cn3c(-c4nnc(C(F)(F)F)s4)nc(C#N)c23)CC1` [Example 166, 1-cyano-N-cyclopropyl-8-(4-isobutyrylpiperazin-1-yl)-3-(5-(trifluoromethyl)-1,3,4-thiadiazol-2-yl)imidazo[1,5-a]pyridine-6-sulfonamide], the 50% inhibitory concentration (IC50) in assay [1] is 882 nM; in assay [2] (PARG, TFMU-ADPr substrate) it was 13.2 nM.
In the case of `CN(C)CCN(C)C(=O)N1CCN(c2cc(S(=O)(=O)NC3(C)COC3)cn3c(-c4nnc(C(F)F)s4)ncc23)CC1` [Example 187, 4-(3-(5-(difluoromethyl)-1,3,4-thiadiazol-2-yl)-6-(N-(3-methyloxetan-3-yl)sulfamoyl)imidazo[1,5-a]pyridin-8-yl)-N-(2-(dimethylamino)ethyl)-N-methylpiperazine-1-carboxamide], the half-maximal inhibitory concentration (IC50) in assay [1] is 874 nM; in assay [2] (PARG, TFMU-ADPr substrate), 3.37 nM.
In the same order, the values of `CC1(NS(=O)(=O)c2cc(N3CCN(C(=O)[C@H]4CCN4CCF)CC3)c3cnc(-c4nnc(C(F)(F)F)s4)n3c2)CC1` [Example 320, (R)-8-(4-(1-(2-fluoroethyl)azetidine-2-carbonyl)piperazin-1-yl)-N-(1-methylcyclopropyl)-3-(5-(trifluoromethyl)-1,3,4-thiadiazol-2-yl)imidazo[1,5-a]pyridine-6-sulfonamide] are 93.9 nM and 2.71 nM.
For `N#CC1(NS(=O)(=O)c2cc(N3CCN(C(=O)C4(O)CC4)CC3)c3cnc(-c4nnc(C(F)(F)F)s4)n3c2)CC1` [Example 237, N-(1-cyanocyclopropyl)-8-(4-(1-hydroxycyclopropane-1-carbonyl)piperazin-1-yl)-3-(5-(trifluoromethyl)-1,3,4-thiadiazol-2-yl)imidazo[1,5-a]pyridine-6-sulfonamide], the IC50 is 4390 nM in assay [1] and 2.88 nM in assay [2] (PARG, TFMU-ADPr substrate).
With `COC(C)C(=O)N1CCN(c2cc(S(=O)(=O)NC3(C#N)CC3)cn3c(-c4nnc(C(F)(F)F)s4)ncc23)CC1` (centres unmarked) [Example 260, N-(1-cyanocyclopropyl)-8-(4-(2-methoxypropanoyl)piperazin-1-yl)-3-(5-(trifluoromethyl)-1,3,4-thiadiazol-2-yl)imidazo[1,5-a]pyridine-6-sulfonamide], the IC50 was found to be 250 nM in assay [1] and 28.8 nM in assay [2] (PARG, TFMU-ADPr substrate).
`C[C@H]1CN(c2cc(S(=O)(=O)NC3(C)COC3)cn3c(-c4nnc(C(F)(F)F)s4)ncc23)C[C@H](C)O1` [Example 355, 8-((2S,6S)-2,6-dimethylmorpholino)-N-(3-methyloxetan-3-yl)-3-(5-(trifluoromethyl)-1,3,4-thiadiazol-2-yl)imidazo[1,5-a]pyridine-6-sulfonamide]: the IC50 was 85 nM in assay [1] and 0.5 nM in assay [2] (PARG, TFMU-ADPr substrate).
Turning to `[2H]C([2H])([2H])OC1(C(=O)N2CCN(c3cc(S(=O)(=O)NC4(C)COC4)cn4c(-c5nnc(C(F)(F)F)s5)nc(Cl)c34)CC2)CC1` [Example 129, 1-chloro-8-(4-(1-(methoxy-d3)cyclopropane-1-carbonyl)piperazin-1-yl)-N-(3-methyloxetan-3-yl)-3-(5-(trifluoromethyl)-1,3,4-thiadiazol-2-yl)imidazo[1,5-a]pyridine-6-sulfonamide], the IC50 came to 12.7 nM in assay [1] and 0.16 nM in assay [2] (PARG, TFMU-ADPr substrate).
Take `CC(C)S(=O)(=O)N1CCN(c2cc(S(=O)(=O)NC3CC3)cn3c(-c4nnc(C(F)(F)F)s4)ncc23)CC1` [Example 215, N-cyclopropyl-8-(4-(isopropylsulfonyl)piperazin-1-yl)-3-(5-(trifluoromethyl)-1,3,4-thiadiazol-2-yl)imidazo[1,5-a]pyridine-6-sulfonamide]: the IC50 in assay [1] came out at 1500 nM; in assay [2] (PARG, TFMU-ADPr substrate) it was 69.2 nM.
`CC1(NS(=O)(=O)c2cc(N3CCN(C(=O)c4c[nH]cn4)CC3)c3cnc(-c4nnc(C(F)F)s4)n3c2)CC1` [Example 340, 8-(4-(1H-imidazole-4-carbonyl)piperazin-1-yl)-3-(5-(difluoromethyl)-1,3,4-thiadiazol-2-yl)-N-(1-methylcyclopropyl)imidazo[1,5-a]pyridine-6-sulfonamide]: the IC50 in assay [1] is 1580 nM; in assay [2] (PARG, TFMU-ADPr substrate) it was 2.15 nM.
Taken in the same sequence, the figures for `CC(C)C(=O)N1CCN(c2c(F)c(S(=O)(=O)NC3(C#N)CC3)cn3c(-c4nnc(C(F)(F)F)s4)ncc23)CC1` [Example 390, N-(1-cyanocyclopropyl)-7-fluoro-8-(4-isobutyrylpiperazin-1-yl)-3-(5-(trifluoromethyl)-1,3,4-thiadiazol-2-yl)imidazo[1,5-a]pyridine-6-sulfonamide] were 793 nM and 28.2 nM.
`N#CC1(NS(=O)(=O)c2cc(N3CCNCC3)c3cnc(-c4nnc(C(F)(F)F)s4)n3c2)CC1` [Example 233, N-(1-cyanocyclopropyl)-8-(piperazin-1-yl)-3-(5-(trifluoromethyl)-1,3,4-thiadiazol-2-yl)imidazo[1,5-a]pyridine-6-sulfonamide]: the concentration for half-maximal inhibition (IC50) was determined as 3000 nM in assay [1] and 45.7 nM in assay [2] (PARG, TFMU-ADPr substrate).
In the same order, the values of `C[C@H]1CN(c2cc(S(=O)(=O)NC3(C)COC3)cn3c(-c4nnc(C(F)F)s4)nc(Cl)c23)C[C@H](C)N1` [Example 126, 1-chloro-3-(5-(difluoromethyl)-1,3,4-thiadiazol-2-yl)-8-((3S,5S)-3,5-dimethylpiperazin-1-yl)-N-(3-methyloxetan-3-yl)imidazo[1,5-a]pyridine-6-sulfonamide] are 602 nM and 5.34 nM.
Taken in the same sequence, the figures for `CN1CC(C(=O)N2CCN(c3cc(S(=O)(=O)NC4(C)CC4)cn4c(-c5nnc(C(F)(F)F)s5)ncc34)CC2)C1` [Example 333, 8-(4-(1-methylazetidine-3-carbonyl)piperazin-1-yl)-N-(1-methylcyclopropyl)-3-(5-(trifluoromethyl)-1,3,4-thiadiazol-2-yl)imidazo[1,5-a]pyridine-6-sulfonamide] were 310 nM and 3.83 nM.
In the same order, the values of `N#CC1(NS(=O)(=O)c2cc(N3CCN(C(=O)[C@@H]4C[C@@H](O)CN4)CC3)c3cnc(-c4nnc(C(F)(F)F)s4)n3c2)CC1` [Example 279, N-(1-cyanocyclopropyl)-8-(4-((2S,4R)-4-hydroxypyrrolidine-2-carbonyl)piperazin-1-yl)-3-(5-(trifluoromethyl)-1,3,4-thiadiazol-2-yl)imidazo[1,5-a]pyridine-6-sulfonamide] are 29900 nM and 95.5 nM.
For the compound `C[C@H]1CN(c2cc(S(=O)(=O)NC3(CF)COC3)cn3c(-c4nnc(C(F)F)s4)ncc23)C[C@H](C)N1` [Example 359, 3-(5-(difluoromethyl)-1,3,4-thiadiazol-2-yl)-8-((3S,5S)-3,5-dimethylpiperazin-1-yl)-N-(3-(fluoromethyl)oxetan-3-yl)imidazo[1,5-a]pyridine-6-sulfonamide], the IC50 was determined as 47 nM in assay [1] and 1.44 nM in assay [2] (PARG, TFMU-ADPr substrate).
In the same order, the values of `N#CC1(NS(=O)(=O)c2cc(C3=CCN(S(=O)(=O)C4CC4)CC3)c3cnc(-c4nnc(C(F)(F)F)s4)n3c2)CC1` [Example 369, N-(1-cyanocyclopropyl)-8-(1-(cyclopropylsulfonyl)-1,2,3,6-tetrahydropyridin-4-yl)-3-(5-(trifluoromethyl)-1,3,4-thiadiazol-2-yl)imidazo[1,5-a]pyridine-6-sulfonamide] are 505 nM and 1.91 nM.
In the case of `CC(C)C(=O)N1CCN(c2cc(S(=O)(=O)NC3(C#N)CC3)cn3c(-c4nnc(C(F)(F)F)s4)ncc23)C[C@H]1C` [Example 205, (R)-N-(1-cyanocyclopropyl)-8-(4-isobutyryl-3-methylpiperazin-1-yl)-3-(5-(trifluoromethyl)-1,3,4-thiadiazol-2-yl)imidazo[1,5-a]pyridine-6-sulfonamide], the 50% inhibitory concentration (IC50) is 699 nM in assay [1] and 22.9 nM in assay [2] (PARG, TFMU-ADPr substrate).
In the same order, the values of `N#CC1(NS(=O)(=O)c2cc(N3CCN(c4ccccn4)CC3)c3cnc(-c4nnc(C(F)(F)F)s4)n3c2)CC1` [Example 244, N-(1-cyanocyclopropyl)-8-(4-(pyridin-2-yl)piperazin-1-yl)-3-(5-(trifluoromethyl)-1,3,4-thiadiazol-2-yl)imidazo[1,5-a]pyridine-6-sulfonamide] are 9000 nM and 75.9 nM.
As for `CC(C)C(=O)N1CCN(c2cc(S(=O)(=O)NC3(C)CC3)cn3c(-c4nnc(C(F)F)s4)nc(C#N)c23)C[C@H]1C` [Example 165, (R)-1-cyano-3-(5-(difluoromethyl)-1,3,4-thiadiazol-2-yl)-8-(4-isobutyryl-3-methylpiperazin-1-yl)-N-(1-methylcyclopropyl)imidazo[1,5-a]pyridine-6-sulfonamide], the IC50 was found to be 1000 nM in assay [1] and 20 nM in assay [2] (PARG, TFMU-ADPr substrate).
As to `[2H]C([2H])([2H])OCC1CN(c2cc(S(=O)(=O)NC3(C)COC3)cn3c(-c4nnc(C(F)F)s4)ncc23)CCN1` (centres unmarked) [Example 392, 3-(5-(difluoromethyl)-1,3,4-thiadiazol-2-yl)-8-(3-((methoxy-d3)methyl)piperazin-1-yl)-N-(3-methyloxetan-3-yl)imidazo[1,5-a]pyridine-6-sulfonamide], the IC50 in assay [1] was determined as 132 nM; in assay [2] (PARG, TFMU-ADPr substrate) it was 11 nM.
Taken in the same sequence, the figures for `COCC1(O)CCN(c2cc(S(=O)(=O)NC3(C)CC3)cn3c(-c4nnc(C(F)F)s4)ncc23)CC1` [Example 346, 3-(5-(difluoromethyl)-1,3,4-thiadiazol-2-yl)-8-(4-hydroxy-4-(methoxymethyl)piperidin-1-yl)-N-(1-methylcyclopropyl)imidazo[1,5-a]pyridine-6-sulfonamide] were 109 nM and 1.53 nM.
On to `CC(C)C(=O)N1CCN(c2cc(S(=O)(=O)NC3(C)CN(C)C3)cn3c(-c4nnc(C(F)F)s4)ncc23)CC1` [Example 51, 3-(5-(difluoromethyl)-1,3,4-thiadiazol-2-yl)-N-(1,3-dimethylazetidin-3-yl)-8-(4-isobutyrylpiperazin-1-yl)imidazo[1,5-a]pyridine-6-sulfonamide], for which the IC50 is over 30000 nM in assay [1] and over 1000 nM in assay [2] (4 nM PARG, 66.2 uM TFMU-ADPr, 3 min at room temperature).

(Values after US20260258035A1, “FIVE-MEMBERED AND SIX-MEMBERED NITROGEN-CONTAINING COMPOUND, AND INTERMEDIATE, PREPARATION METHOD AND USE THEREOF” (HANGZHOU SYNRX THERAPEUTICS BIOMEDICAL TECHNOLOGY CO., LTD., priority 2022, published 2026).)
